DBAASP
In brackets after ≈: the same amount, converted by molar mass.

Legend:
Test in all cases: ≥ marks a high value that may be exact or a test limit, other limits are often not marked, values filed in µg/mL are converted to µM
[1] = tested on: Mannheimia haemolytica 82-25
[2] = tested on: Pseudomonas aeruginosa PAO1
[3] = tested on: Staphylococcus epidermidis
[4] = tested on: Staphylococcus aureus ATCC BAA-41
Escherichia coli BL21 = tested on: Escherichia coli BL21
[5] = tested on: Staphylococcus aureus ATCC 6538P
[6] = tested on: Klebsiella pneumoniae ATCC 10031
[7] = tested on: Bacillus subtilis KCTC 1021
Serratia marcescens = tested on: Serratia marcescens
[8] = tested on: Pseudomonas aeruginosa ATCC 9027
[9] = tested on: Micrococcus luteus ATCC 4698
[10] = tested on: Salmonella enterica subsp. enterica serovar Typhimurium ATCC 14028
Escherichia coli = tested on: Escherichia coli
[11] = tested on: Shigella dysenteriae ATCC 9752
[12] = tested on: Cutibacterium acnes ATCC 11827
[13] = tested on: Staphylococcus epidermidis 09B2490
[14] = tested on: Staphylococcus epidermidis 09A3726
[15] = tested on: Cutibacterium acnes ATCC 6919
[16] = tested on: Staphylococcus aureus ATCC 2592
Cutibacterium acnes = tested on: Cutibacterium acnes
[17] = tested on: Escherichia coli D31 CGSC 5165
[18] = tested on: Pseudomonas aeruginosa ATCC 47085
[19] = tested on: Acinetobacter baumannii ATCC 19606
[20] = tested on: Staphylococcus aureus ATCC 35556
[21] = tested on: Escherichia coli ATCC 25922
[22] = tested on: Pseudomonas aeruginosa ATCC 27853
Escherichia coli 078 = tested on: Escherichia coli 078
[23] = tested on: Staphylococcus aureus ATCC 29213
[24] = tested on: Salmonella enterica subsp. enterica serovar Pullorum ATCC 7913
[25] = tested on: Streptococcus thermophilus YM-C
[26] = tested on: Lacticaseibacillus rhamnosus 7469
[27] = tested on: Streptococcus agalactiae CICC 10465
[28] = tested on: Staphylococcus aureus ATCC 25923
Escherichia coli UB1005 = tested on: Escherichia coli UB1005
[29] = tested on: Staphylococcus epidermidis ATCC 12228
[30] = tested on: Salmonella enterica subsp. enterica serovar Typhimurium C77-31
Streptococcus agalactiae = tested on: Streptococcus agalactiae
[31] = tested on: Candida albicans NCPF 1467
[32] = tested on: Staphylococcus aureus ATCC 12493
[33] = tested on: Enterococcus faecalis NCTC 12697
[34] = tested on: Staphylococcus aureus NCTC 10788
[35] = tested on: Escherichia coli NCTC 10418

## C[C@H](NC(=O)CN)C(=O)N[C@@H](CC(=O)O)C(=O)N[C@@H](CC(=O)O)C(=O)N[C@@H](CC(=O)O)C(=O)N[C@@H](CC(=O)O)C(=O)N[C@@H](CC(=O)O)C(=O)O [GADDDDD]
[1]
  MIC: 30 µM (≈ 21.6 µg/mL)

## CC[C@H](C)[C@H](NC(=O)[C@H](CCCCN)NC(=O)[C@H](CCCCN)NC(=O)[C@H](Cc1ccccc1)NC(=O)[C@H](CC(C)C)NC(=O)[C@H](CCCCN)NC(=O)[C@H](Cc1c[nH]c2ccccc12)NC(=O)[C@@H](N)CCCCN)C(=O)NCC(=O)N[C@@H](C)C(=O)N[C@H](C(=O)N[C@@H](CC(C)C)C(=O)N[C@@H](CCCCN)C(=O)N[C@@H](CCCCN)C(=O)N[C@@H](CC(C)C)C(=O)O)C(C)C [KWKLFKKIGAVLKKL]
[2]
  MIC: 2.83 µM (≈ 5.09 µg/mL)
[3]
  MIC: 0.354 µM (≈ 0.637 µg/mL)
[4]
  MIC: 8 µM (≈ 14.4 µg/mL)
Escherichia coli BL21
  MIC: 2 µM (≈ 3.6 µg/mL)
[5]
  MIC: 5.66 µM (≈ 10.2 µg/mL)

## CC[C@H](C)[C@H](NC(=O)CN)C(=O)N[C@@H](CC(C)C)C(=O)N[C@@H](CC(=O)O)C(=O)N[C@H](C(=O)N[C@@H](CC(C)C)C(=O)N[C@@H](CCCCN)C(=O)N[C@@H](CCC(N)=O)C(=O)N[C@@H](Cc1ccccc1)C(=O)N[C@@H](C)C(=O)N[C@@H](CCCCN)C(=O)NCC(=O)N[C@H](C(=O)NCC(=O)N[C@@H](CCCCN)C(=O)N[C@@H](Cc1c[nH]c2ccccc12)C(=O)N[C@@H](CC(C)C)C(=O)N[C@H](C(=O)N[C@@H](CCCCN)C(=O)NCC(=O)N[C@@H](C)C(=O)N[C@@H](C)C(=O)N[C@@H](CCC(N)=O)C(=O)O)C(C)C)C(C)C)[C@@H](C)O [GILDTLKQFAKGVGKWLVKGAAQ]
[6]
  MIC: 10.3 µM (≈ 25 µg/mL)
[7]
  MIC: 10.3 µM (≈ 25 µg/mL)
Serratia marcescens
  MIC: ≥ 82.3 µM
[8]
  MIC: 51.5 µM (≈ 125 µg/mL)
[9]
  MIC: 1.03 µM (≈ 2.5 µg/mL)
[10]
  MIC: 51.5 µM (≈ 125 µg/mL)
Escherichia coli
  MIC: 10.3 µM (≈ 25 µg/mL)
[11]
  MIC: 20.6 µM (≈ 50 µg/mL)

## CC(C)[C@H](N)C(=O)N[C@@H](CCCCN)C(=O)N[C@@H](CCCN=C(N)N)C(=O)N[C@@H](Cc1c[nH]c2ccccc12)C(=O)N[C@@H](CCCCN)C(=O)N[C@@H](CCCCN)C(=O)N[C@@H](Cc1c[nH]c2ccccc12)C(=O)N[C@@H](Cc1c[nH]c2ccccc12)C(=O)N[C@@H](CCCN=C(N)N)C(=O)N[C@@H](CCCCN)C(=O)N[C@@H](Cc1c[nH]c2ccccc12)C(=O)N[C@@H](CCCCN)C(=O)N[C@@H](CCCCN)C(=O)N[C@@H](Cc1c[nH]c2ccccc12)C(=O)N[C@H](C(N)=O)C(C)C [VKRWKKWWRKWKKWV]
[12]
  MIC: 0.269 µM (≈ 0.6 µg/mL)
[13]
  MIC: 1.03 µM (≈ 2.3 µg/mL)
[14]
  MIC: 2.11 µM (≈ 4.7 µg/mL)
[15]
  MIC: 0.269 µM (≈ 0.6 µg/mL)
[16]
  MIC: 1.03 µM (≈ 2.3 µg/mL)
Cutibacterium acnes
  MIC: 0.269 µM (≈ 0.6 µg/mL)

## CC[C@H](C)[C@H](NC(=O)[C@H](CCCCN)NC(=O)CNC(=O)[C@H](CC(C)C)NC(=O)[C@@H](NC(=O)[C@H](C)NC(=O)[C@H](CCCCN)NC(=O)CNC(=O)[C@H](C)NC(=O)CNC(=O)[C@H](CCCCN)NC(=O)[C@H](CCSC)NC(=O)[C@H](CCCCN)NC(=O)[C@@H](NC(=O)[C@H](Cc1c[nH]c2ccccc12)NC(=O)[C@H](CC(C)C)NC(=O)[C@H](CCCCN)NC(=O)[C@H](CCCCN)NC(=O)[C@H](CC(C)C)NC(=O)[C@@H](N)CC(C)C)[C@@H](C)O)C(C)C)C(=O)N[C@@H](CCCCN)C(=O)NCC(=O)N[C@@H](CC(C)C)C(=O)N[C@@H](CC(C)C)C(=O)O [LLKKLWTKMKGAGKAVLGKIKGLL]
[17]
  MIC: 1.88 µM (≈ 4.88 µg/mL)
[18]
  MIC: 3.75 µM (≈ 9.73 µg/mL)
[19]
  MIC: 0.94 µM (≈ 2.44 µg/mL)
[20]
  MIC: 3.75 µM (≈ 9.73 µg/mL)

## CC[C@H](C)[C@H](NC(=O)[C@H](CC(C)C)NC(=O)[C@@H](NC(=O)[C@@H](N)CC(=O)O)[C@@H](C)CC)C(=O)N[C@H](C(=O)N[C@H](C(=O)NCC(=O)NCC(=O)NCC(=O)N[C@@H](CO)C(=O)NCC(=O)N[C@@H](CCCCN)C(=O)N[C@@H](CCC(=O)O)C(=O)N[C@@H](CCCN=C(N)N)C(=O)N[C@@H](CCCCN)C(=O)N[C@@H](CCCCN)C(=O)N[C@@H](CCCN=C(N)N)C(=O)N[C@@H](CCCN=C(N)N)C(=O)N[C@@H](CCCN=C(N)N)C(N)=O)C(C)C)[C@@H](C)CC [DILIIVGGGSGKERKKRRR]
[21]
  MIC: > 64 µM
[22]
  MIC: > 64 µM
Escherichia coli 078
  MIC: ≥ 64 µM
[23]
  MIC: > 64 µM
[10]
  MIC: > 64 µM
[24]
  MIC: ≥ 64 µM
[25]
  MIC: ≥ 64 µM
[26]
  MIC: ≥ 64 µM
[27]
  MIC: 4 µM (≈ 8.55 µg/mL)
[28]
  MIC: > 64 µM
Escherichia coli UB1005
  MIC: ≥ 64 µM
[29]
  MIC: > 64 µM
[30]
  MIC: ≥ 64 µM
Streptococcus agalactiae
  MIC: 4 µM (≈ 8.55 µg/mL)

## CC[C@H](C)[C@H](NC(=O)[C@H](CCCCN)NC(=O)[C@@H]1CCCN1C(=O)[C@H](CC(C)C)NC(=O)[C@@H](N)Cc1ccccc1)C(=O)N[C@@H](CC(C)C)C(=O)N[C@@H](CCCCN)C(=O)N[C@H](C(=O)N[C@@H](C)C(=O)N[C@@H](C)C(=O)N[C@@H](CCCCN)C(N)=O)C(C)C [FLPKILKVAAK]
[22]
  MIC: > 512 µM
[31]
  MIC: ≥ 256 µM
[32]
  MIC: ≥ 512 µM
[33]
  MIC: ≥ 512 µM
[34]
  MIC: ≥ 256 µM
[35]
  MIC: ≥ 512 µM
